Tests used:
DLK = molecular target: T1, DLK (Homo sapiens, UniProt Q12852); assay: DLK biochemical assay (TR-FRET, MKK7 phosphorylation); details: DLK catalytic domain, MKK7 substrate, 60 μM ATP
T1 construct: 10 nM DLK, catalytic domain, Carna Biosiences; purchased Carna Biosciences ('Carna Biosiences' [sic])
T1 sequence (Q12852 125-366 limits assumed): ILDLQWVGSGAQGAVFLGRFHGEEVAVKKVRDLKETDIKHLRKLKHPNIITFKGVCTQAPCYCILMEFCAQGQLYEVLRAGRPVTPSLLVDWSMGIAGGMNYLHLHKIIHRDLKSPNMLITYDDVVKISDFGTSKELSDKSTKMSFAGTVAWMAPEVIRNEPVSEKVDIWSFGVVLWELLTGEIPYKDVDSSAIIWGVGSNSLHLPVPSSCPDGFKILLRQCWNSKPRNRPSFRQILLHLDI
In short: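 Human DLK activity measured as phosphorylation of His-tagged MKK7 at T275/S277, detected by TR-FRET between Eu-anti-phospho-MKK7 donor (excitation 340 nm) and XL665-anti-His acceptor (665 nm). Signal taken as the XL665/Eu ratio. Detection buffer: 25 mM Tris/HCl pH 7.5, 100 mM EDTA, 100 mM NaCl, 200 mM KF, 0.01% Tween 20.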

LZK = molecular target: T2, LZK (Homo sapiens, UniProt O43283); assay: LZK biochemical assay (TR-FRET, MKK7 phosphorylation); details: LZK catalytic domain, MKK7 substrate, 15 μM ATP
T2 construct: 10 nM LZK, catalytic domain, Carna Biosiences in assay buffer; purchased Carna Biosciences ('Carna Biosiences' [sic])
T2 sequence (O43283 168-409 limits assumed): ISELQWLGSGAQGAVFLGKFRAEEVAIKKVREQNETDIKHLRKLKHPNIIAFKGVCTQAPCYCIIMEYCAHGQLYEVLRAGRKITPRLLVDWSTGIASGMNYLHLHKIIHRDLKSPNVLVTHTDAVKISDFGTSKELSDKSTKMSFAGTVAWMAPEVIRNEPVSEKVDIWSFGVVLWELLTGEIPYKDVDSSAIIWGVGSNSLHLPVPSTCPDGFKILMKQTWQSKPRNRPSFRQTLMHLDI

In the case of `CC(CF)NC(=O)c1cc(-c2cnn(C(c3ccccc3)C(C)C)c2)cn2nc(N)nc12` (single isomer, unassigned) [Example I-139, 2-Amino-N-(1-fluoropropan-2-yl)-6-{1-[2-methyl-1-phenylpropyl]-1H-pyrazol-4-yl}[1,2,4]triazolo[1,5-a]pyridine-8-carboxamide], the IC50 (DLK) is reported as 1.7 nM and the IC50 (LZK) is reported as 64 nM.
`CC[C@H](C)NC(=O)c1cc(-c2cnn([C@@H](CC)c3ccc(C(F)F)nc3)c2)cc2nc(N)nn12` (single isomer, unassigned) [Example I-94] was tested, and the IC50 (DLK) was 1 nM and the IC50 (LZK) was 1.9 nM.
With `CC(CF)NC(=O)c1cc(-c2cnn(Cc3cccc4cn[nH]c34)c2)cn2nc(N)nc12` (racemic) [Example I-138, 2-Amino-N-(1-fluoropropan-2-yl)-6-{1-[(1H-indazol-7-yl)methyl]-1H-pyrazol-4-yl} [1,2,4]triazolo[1,5-a]pyridine-8-carboxamide] the IC50 (DLK) was 3 nM and the IC50 (LZK) was 190 nM.
In the case of `CC[C@H](C)NC(=O)c1cc(-c2cnn(C(COC)c3ccccc3)c2)cn2nc(N)nc12` (single isomer, unassigned) [Example I-41], the IC50 (DLK) is reported as 2.8 nM and the IC50 (LZK) is reported as 26 nM.
For `CC[C@H](C)NC(=O)c1cc(-c2cnn(C(c3ccccc3)C(C)C)c2)cc2nc(N)nn12` (single isomer, unassigned) [Example I-25], the IC50 (DLK) was 23 nM and the IC50 (LZK) was 140 nM.
In the case of `CCC(c1ccc(F)cn1)n1cc(-c2cc(C(=O)N[C@@H](C)CC)c3nc(N)nn3c2)cn1` (single isomer, unassigned) [Example I-56], the IC50 (DLK) is reported as 2.7 nM and the IC50 (LZK) is reported as 19 nM.
With `CCC(c1ccc(OCC(F)(F)F)nc1)n1cc(-c2cc(C(=O)N[C@@H](C)CC)c3nc(N)nn3c2)cn1` (single isomer, unassigned) [Example I-86] the IC50 (DLK) was 100 nM and the IC50 (LZK) was 160 nM.
Work on `C[C@@H](CO)NC(=O)c1cc(-c2cnn(C(c3ccc(C(F)(F)F)nc3)C3CCOCC3)c2)cn2nc(N)nc12` (mixture of isomers) [Example I-154, 2-Amino-N-[(25)-1-hydroxypropan-2-yl]-6-(1-{tetrahydro-2H-pyran-4-yl[6-(trifluoromethyl)pyridin-3-yl]methyl}-1H-pyrazol-4-yl)[1,2,4]triazolo[1,5-a]pyridine-8-carboxamide] yielded an IC50 (DLK) of 1.1 nM and an IC50 (LZK) of 4.6 nM.
Compound `CC(CF)NC(=O)c1cc(-c2cnn(C(c3ccccc3)C(C)C)c2)cn2nc(N)nc12` (single isomer, unassigned) [Example I-140, 2-Amino-N-(1-fluoropropan-2-yl)-6-[1-(2-methyl-1-phenylpropyl)-1H-pyrazol-4-yl][1,2,4]triazolo[1,5-a]pyridine-8-carboxamide] has an IC50 (DLK) of 0.5 nM and an IC50 (LZK) of 32 nM.
For `CC[C@H](C)NC(=O)c1cc(-c2cnn(C(c3ccc(C(F)(F)F)nc3)C3CCOCC3)c2)cn2nc(N)nc12` (mixture of isomers) [Example I-76, 2-Amino-N-[(2S)-butan-2-yl]-6-(1-{tetrahydro-2H-pyran-4-yl[6-(trifluoromethyl)pyridin-3-yl]methyl}-1H-pyrazol-4-yl)[1,2,4]triazolo[1,5-a]pyridine-8-carboxamide], the IC50 (DLK) was 0.5 nM and the IC50 (LZK) was 1.1 nM.
`CC[C@H](C)NC(=O)c1cc(-c2cnn(C3CN(Cc4ccccc4)C3)c2)cn2nc(N)nc12` [Example I-5] was tested, and the IC50 (DLK) was 55 nM and the IC50 (LZK) was 15 nM.
Work on `CC(C)C(c1ccc(C(F)(F)F)nc1)n1cc(-c2cc(C(=O)N[C@H]3CCOC3)n3nc(N)nc3c2)cn1` (single isomer, unassigned) [Example I-182] yielded an IC50 (DLK) of 0.3 nM and an IC50 (LZK) of 1.2 nM.
In the case of `CC[C@H](C)NC(=O)c1cc(-c2cnn(C(c3ccc(C(F)(F)F)nc3)C(C)C)c2)cc2nc(N)nn12` (single isomer, unassigned) [Example I-105], the IC50 (DLK) is reported as 13 nM and the IC50 (LZK) is reported as 14 nM.
